# Measurements from patent publication US11530317B2, “Deep eutectic solvent compositions” (SABIC GLOBAL TECHNOLOGIES B.V., priority 2017, dated 2022).
# Where two headings read alike, the source gives them in different places.
# Columns and labels:
# [1] = Quantification of solubility by visual inspection for undissolved material; type: physicochemical; conditions: for Enhancement factor: solubility in ChCl-urea DES relative to aqueous solution; for Solubility in water: obtained in this work
# Procedure: Solubility was determined through adding an amount of CB[n] n=6, 7 or 8 or x-CD (where x=α, β or γ) to 1 mL of solvent followed by vortexing and heating the mixture to 80° C. The mixture was inspected visually to determine the presence of undissolved material. The mixture was then cooled to room temperature and the mixture re-examined to determine the presence of any undissolved material.
# [2] = UV/vis probing of host-guest binding in ChCl-urea DES
# Procedure: Methylviologen dichloride (2.0 mg, […], 1 eq.) was dissolved in ChCl:urea (1 mL) by vortexing and heating to 60° C. The methylviologen radical was formed by addition of a significant excess of reducing agent, sodium hydrosulfite, approx. 20 molar equivalents. To this solution CB[7] (9.0 mg, […], 1 eq.) was added and dissolved through stirring at 60° C. A sample of this solution (0.1 mL) was added to ChCl-urea (1 mL) and measured by UV/vis.
# Methylviologen dichloride (2.0 mg, […], 1 eq.) was dissolved in ChCl:urea (1 mL) by vortexing and heating to 60° C. The methylviologen radical was formed by addition of a significant excess of reducing agent, sodium hydrosulfite, approx. 20 molar equivalents. To this solution CB[8] (10.1 mg, […], 1 eq. or 20.2 mg, 15.6 mmol, 2 eq.) was added and dissolved through stirring at 60° C. 0.1 ml of this solution were added to 1 ml of ChCl-urea and measured by UV/vis.
# To probe the binding of γ-CD to MV^.+ a high concentration of MV^.+ was required on account of the lower binding constants of CDs compared to CB[n]. A solution of MV^.+ (15 mg/mL) was prepared (as described for CB[7] above) and to this γ-CD (170 mg, 2 equivalents) was added.
# [3] = Cyclic voltammetry cycling stability of MV in DES in air; type: physicochemical; conditions: DES (ChCl-urea, ChCl-ethylene glycol, ChCl-glycerol), no degassing
# Procedure: Electrochemical measurements were performed in air at 40° C. using a PalmSens EmStat potentiostat. A three-electrode cell was used, equipped with a glassy carbon working electrode (3 mm diameter, BASi), a Ag/AgCl reference electrode (BASi) and a platinum mesh counter electrode (Sigma-Aldrich). The working electrode was cleaned before experiments by mechanically polishing in alumina (Buehler, Micropolish, 1 μm) on a polishing cloth (Buehler, Microcloth).
# Cyclic voltammetry (CV) was recorded at 0.1 V s^−1 scan rate and 5.0 mM MV^2+ 2Cl^− concentration. FcMeOH (5 mM) was used as an internal reference. Analyte solutions were prepared by heating the respective DES with MV^2+ 2Cl^− and FcMeOH to 80° C. for 30 min.
# None of the solutions were degassed before measurement nor was any attempt made to exclude oxygen or air.
# [4] = Long term UV/vis measurement of MV^+. in ChCl-urea DES exposed to air; type: physicochemical
# Procedure: MV^2+ 2Cl^− (1 mg, 0.0039 mmol) was added to ChCl-urea DES (10 mL) and dissolved by heating to 80° C. for 30 min to give a 0.39 mM solution. The solution was then heated to 130° C. for 2 h during which time it had turned blue. A portion (1.5 mL) of the resulting blue solution was removed, placed in a cuvette and a UV/vis spectrum was recorded.
# Spectra were recorded across a 100 h period in an open cuvette.
# The solution was not degassed or covered in any way nor was any attempt to keep O2 out made.
# [5] = Purging of MV^+. solutions (DES or water) with air, monitored by UV/vis at 609 nm; type: physicochemical
# [6] = Photochemical switching of MV in DES (solar light simulator, then air purge); type: physicochemical; conditions: photogenerated radical in DES, purging with air
# Procedure: DES MV^2+ solution (1.5 mL) in a quartz cuvette (1 cm path length, Hellma) was placed in a water bath held at 25° C. and irradiated by a solar light simulator (Newport Oriel, 100 mW cm^−2) equipped with an air mass 1.5 global filter (AM 1.5 G). IR irradiation was filtered with a water filter (10 cm path length). Samples were thermostatted at 25° C.
# Stock solutions of MV^2+ in each of the three DES were prepared as follows: MV^2+ 2Cl^− (10 mg, 0.04 mmol) was added each individual DES (ChCl-urea, ChCl-glycerol and ChCl-ethylene glycol) (10 mL) separately and dissolved by heating to 80° C. for 30 min to give a colorless solution.
# MV^2+ in DES (1.5 mL) was transferred to a quartz cuvette and placed in a water bath held at 25° C. in front of a solar light simulator. The sample was removed from the simulator and UV/vis spectra recorded at various time intervals to monitor the formation of MV^+..
# The resultant blue MV^+. solutions were then purged with air (30 mL min^−1) using a mass flow controller (Brooks). UV/vis spectra were recorded at time intervals during the purging to monitor the disappearance of the MV^+. species.
# [7] = Solubility of methylviologen dichloride in ChCl-urea; type: physicochemical; conditions: ChCl-urea DES
# From the text: However, it should be noted that other anions, such as [PF6]^− and I^− were also found to be soluble and may also be used.
# [8] = values taken from Sabadini et al.; cited from earlier work
# [9] = ChCl-urea DES, room temperature
Compound,"DES solubility (maximum solubility) [1, 9]",maximum solubility ([1]; ChCl-TsOH DES) [mg/mL],maximum solubility ([1]; ChCl-urea DES) [mg/mL],maximum solubility ([1]; H2O) [mg/mL],maximum solubility ([1]; HCl (3M)) [mg/mL],maximum solubility ([1]; NaCl (0.1M)) [mg/mL],maximum solubility ([1]; Phosphate buffer (pH = 7.0)) [mg/mL],Enhancement factor [1],Solubility in water ([1]; water) [mg/mL],host-guest binding with MV^.+ by UV/vis [2],other results
"C[n+]1ccc(-c2cc[n+](C)cc2)cc1.[Cl-].[Cl-] [MV, N,N′-dimethyl-4,4′-bipyridinium dichloride]",,,,,,,,,,,"electrochemical cycling stability [3]: ≥ 100 cycles; change in absorbance at 609 nm ([4]; ChCl-urea DES, exposed to air, 100 h period): no change in absorbance at 609 nm; time solutions remain blue ([4]; DES solutions prepared and stored in air): > 6 months; forecast lifetime ([4]; in DES, in air): > 6 months; radical lifetime upon purging with air ([5]; ChCl-ethylene glycol DES (36 cP)): shortest radical lifetime; radical lifetime upon purging with air ([5]; ChCl-glycerol DES (376 cP)): 900 min; radical lifetime upon purging with air ([5]; ChCl-urea DES (632 cP)): 400 min; time to complete quenching ([5]; aqueous solution, purging with air 0.1 mL min^−1): less than 4 min; persistence of radical species ([5]; in DES, purging with air 30 mL min^−1): 2 to 15 h; time to revert to colourless [6]: ≤ 150 s; solubility in ChCl-urea [7]: soluble"
OC[C@H]1O[C@@H]2O[C@H]3[C@H](O)[C@@H](O)[C@@H](O[C@H]4[C@H](O)[C@@H](O)[C@@H](O[C@H]5[C@H](O)[C@@H](O)[C@@H](O[C@H]6[C@H](O)[C@@H](O)[C@@H](O[C@H]7[C@H](O)[C@@H](O)[C@@H](O[C@H]1[C@H](O)[C@H]2O)O[C@@H]7CO)O[C@@H]6CO)O[C@@H]5CO)O[C@@H]4CO)O[C@@H]3CO [α-CD],>500 mg/mL,,,,,,,>3.5,,,Solubility in water [8]: 129.5 mg/mL
OC[C@H]1O[C@@H]2O[C@H]3[C@H](O)[C@@H](O)[C@@H](O[C@H]4[C@H](O)[C@@H](O)[C@@H](O[C@H]5[C@H](O)[C@@H](O)[C@@H](O[C@H]6[C@H](O)[C@@H](O)[C@@H](O[C@H]7[C@H](O)[C@@H](O)[C@@H](O[C@H]8[C@H](O)[C@@H](O)[C@@H](O[C@H]9[C@H](O)[C@@H](O)[C@@H](O[C@H]1[C@H](O)[C@H]2O)O[C@@H]9CO)O[C@@H]8CO)O[C@@H]7CO)O[C@@H]6CO)O[C@@H]5CO)O[C@@H]4CO)O[C@@H]3CO [γ-CD],>1000 mg/mL,,,,,,,>4,,binding behaviour similar to the CB[8] system occurred,CD content of the solution at that solubility ([1]; ChCl-urea DES): ~50 wt %; Solubility in water [8]: 249.2 mg/mL
Cucurbit[8]uril [CB[8]],2 mg/mL,3.1,2.0,<0.2,1.8,0.1,0.3,10,<0.2,formation of a 2:1 complex,

# Further lines, with some results ahead:
"DES solubility (maximum solubility) [1, 9]",maximum solubility ([1]; ChCl-TsOH DES) [mg/mL],maximum solubility ([1]; ChCl-urea DES) [mg/mL],maximum solubility ([1]; H2O) [mg/mL],maximum solubility ([1]; HCl (3M)) [mg/mL],maximum solubility ([1]; NaCl (0.1M)) [mg/mL],maximum solubility ([1]; Phosphate buffer (pH = 7.0)) [mg/mL],Enhancement factor [1],Solubility in water ([1]; water) [mg/mL],host-guest binding with MV^.+ by UV/vis [2],Compound,other results
approx. 25 mg/mL,,,,,,,,,,O=C1N2CN3C(=O)N4CN5C(=O)N6CN7C(=O)N8CN9C(=O)N%10CN1C1C2N2CN%11C(=O)N(CN%12C(=O)N(CN%13C(=O)N(CN%14C(=O)N(CN1C2=O)C%10C9%14)C8C7%13)C6C5%12)C4C3%11 (stereo not drawn) [CB[5]],
1.0 mg/mL,1.0,1.0,<0.1,15.0,4.6,17.4,10,<0.1,,O=C1N2CN3C(=O)N4CN5C(=O)N6CN7C(=O)N8CN9C(=O)N%10CN%11C(=O)N%12CN1C1C2N2CN%13C(=O)N(CN%14C(=O)N(CN%15C(=O)N(CN%16C(=O)N(CN%17C(=O)N(CN1C2=O)C%12C%11%17)C%10C9%16)C8C7%15)C6C5%14)C4C3%13 (stereo not drawn) [CB[6]],
17 mg/mL,18.0,17.0,4.4,100,14.8,19.8,3.9,4.4,binding of MV^.+ is occurring,O=C1N2CN3C(=O)N4CN5C(=O)N6CN7C(=O)N8CN9C(=O)N%10CN%11C(=O)N%12CN%13C(=O)N%14CN1C1C2N2CN%15C(=O)N(CN%16C(=O)N(CN%17C(=O)N(CN%18C(=O)N(CN%19C(=O)N(CN%20C(=O)N(CN1C2=O)C%14C%13%20)C%12C%11%19)C%10C9%18)C8C7%17)C6C5%16)C4C3%15 (stereo not drawn) [CB[7]],"maximum solubility ([1]; ChCl-urea (1:2), room temperature): 15.0 mg cm^−3; maximum solubility in water ([1]; water): 4.4 mg cm^−3"
>1000 mg/mL,,,,,,,>55,,,OC[C@H]1O[C@@H]2O[C@H]3[C@H](O)[C@@H](O)[C@@H](O[C@H]4[C@H](O)[C@@H](O)[C@@H](O[C@H]5[C@H](O)[C@@H](O)[C@@H](O[C@H]6[C@H](O)[C@@H](O)[C@@H](O[C@H]7[C@H](O)[C@@H](O)[C@@H](O[C@H]8[C@H](O)[C@@H](O)[C@@H](O[C@H]1[C@H](O)[C@H]2O)O[C@@H]8CO)O[C@@H]7CO)O[C@@H]6CO)O[C@@H]5CO)O[C@@H]4CO)O[C@@H]3CO [β-CD],CD content of the solution at that solubility ([1]; ChCl-urea DES): ~50 wt %
